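A five-concentration, 48-hour dose response in 96-well plates underlies each endpoint, interpolated linearly between surrounding concentrations. GI50 is the concentration that inhibits growth by half.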 The source made the active and inactive calls. Rule as the data show it: active = GI50 up to about 1.1 µM and inactive = higher.
Experiments:
Assay in all cases: NCI tumour cell line growth inhibition, 48 h
[1] = system: CCRF-CEM
[2] = system: NCI-H226
[3] = system: T47D
[4] = system: SNB-19
[5] = system: DU-145
[6] = system: SK-MEL-2
[7] = system: 786-0
[8] = system: M14
[9] = system: HOP-92
[10] = system: SF-268
[11] = system: SF-295
[12] = system: HCC 2998
[13] = system: SNB-75
[14] = system: UO-31
[15] = system: SK-MEL-28
[16] = system: MOLT-4
[17] = system: MDA-MB-435
[18] = system: OVCAR-3
[19] = system: TK-10
[20] = system: KM12

Row | SMILES | GI50 [1] | GI50 [2] | GI50 [3] | GI50 [4] | GI50 [5] | GI50 [6] | GI50 [7] | GI50 [8] | GI50 [9] | GI50 [10] | GI50 [11] | GI50 [12] | GI50 [13] | GI50 [14] | GI50 [15] | GI50 [16] | GI50 [17] | GI50 [18] | GI50 [19] | GI50 [20]
1 | CC(=O)Oc1cc2c(cc1OCC(F)(F)F)[C@H]1CC[C@]3(C)[C@@H](OC(C)=O)CC[C@H]3[C@@H]1CC2=O | 15.3 µM (inactive) | 46.6 µM (inactive) | 23.3 µM (inactive) | 18.8 µM (inactive) | 20.7 µM (inactive) | 16.9 µM (inactive) | 26.4 µM (inactive) | 26.4 µM (inactive) | 13.2 µM (inactive) | 21.1 µM (inactive) | 25.1 µM (inactive) | 16.8 µM (inactive) | 16 µM (inactive) | 16 µM (inactive) | 22.2 µM (inactive) | 15.6 µM (inactive) | 21.6 µM (inactive) | 19.5 µM (inactive) | 17.5 µM (inactive) | 27.7 µM (inactive)
2 | Cc1cccc(/N=N/c2c(C)nn(C(=O)CC(=O)Nc3ccc(Cl)cc3)c2C)c1 | 32.4 µM (inactive) | 20 µM (inactive) | 64.3 µM (inactive) | 80.5 µM (inactive) | > 100 µM (inactive) | 67.5 µM (inactive) | 82 µM (inactive) | 48.3 µM (inactive) | 21 µM (inactive) | 55.2 µM (inactive) | > 100 µM (inactive) | > 100 µM (inactive) | 9.51 µM (inactive) | > 100 µM (inactive) | > 100 µM (inactive) | 36.6 µM (inactive) | > 100 µM (inactive) | 82.4 µM (inactive) | > 100 µM (inactive) | > 100 µM (inactive)
3 | CCC1CC2CN3CCc4c([nH]c5c(-c6c(OC)ccc7c8c([nH]c67)[C@]6(C(=O)OC)CC7CC(CC)C6N(CC8)C7)c(O)ccc45)[C@](C(=O)OC)(C2)C13 (stereo not given in full) | 15.3 µM (inactive) | 4.92 µM (inactive) | 11.1 µM (inactive) | 14.3 µM (inactive) | 14.9 µM (inactive) | 20.9 µM (inactive) | 12.6 µM (inactive) | 24.9 µM (inactive) | 12.9 µM (inactive) | 12.1 µM (inactive) | 17.4 µM (inactive) | 13.3 µM (inactive) | 14.8 µM (inactive) | 12.7 µM (inactive) | 15.8 µM (inactive) | 2.64 µM (inactive) | 11.1 µM (inactive) | 14.6 µM (inactive) | 15.2 µM (inactive) | 12.4 µM (inactive)
4 | CCCCCCCCCCN(CCCCCCCCCC)C(=O)COc1c2cc(C(C)(C)C)cc1Cc1cc(C(C)(C)C)cc(c1OCC(=O)N(CCCCCCCCCC)CCCCCCCCCC)Cc1cc(C(C)(C)C)cc(c1OCC(=O)N(CCCCCCCCCC)CCCCCCCCCC)Cc1cc(C(C)(C)C)cc(c1OCC(=O)N(CCCCCCCCCC)CCCCCCCCCC)C2 | 4.66 µM (inactive) | 19.3 µM (inactive) | 16.1 µM (inactive) | 9.79 µM (inactive) | 17.8 µM (inactive) | 7.93 µM (inactive) | 11.2 µM (inactive) | 2.92 µM (inactive) | < 0.01 µM (active) | 15.1 µM (inactive) | 10.1 µM (inactive) | 8.85 µM (inactive) | 18.2 µM (inactive) | 22 µM (inactive) | 11.3 µM (inactive) | 2.76 µM (inactive) | 12.9 µM (inactive) | 15.7 µM (inactive) | 18.8 µM (inactive) | 11.5 µM (inactive)
5 | Cc1c(C)c2c(c(N)c1C#N)C(=O)N(CCN1CCNCC1)C2=O | 33.4 µM (inactive) | 29.1 µM (inactive) | 36.4 µM (inactive) | 49.3 µM (inactive) | 29.4 µM (inactive) | 35.9 µM (inactive) | 25.4 µM (inactive) | 33.8 µM (inactive) | 25.2 µM (inactive) | 34.1 µM (inactive) | 31.5 µM (inactive) | 31.6 µM (inactive) | 26.2 µM (inactive) | 28.6 µM (inactive) | 38.3 µM (inactive) | 30.5 µM (inactive) | 33.5 µM (inactive) | 33.3 µM (inactive) | 36.7 µM (inactive) | 45.4 µM (inactive)
6 | O=c1[nH]cc(F)c(=O)[nH]1 [FLUOROURACIL] | 35.2 µM (inactive) | 250 µM (inactive) | 75.5 µM (inactive) | 116 µM (inactive) | 9.29 µM (inactive) | 372 µM (inactive) | 11.9 µM (inactive) | 46.5 µM (inactive) | 162 µM (inactive) | 51.4 µM (inactive) | 51.9 µM (inactive) | 1.6 µM (inactive) | 181 µM (inactive) | 5.64 µM (inactive) | 50.2 µM (inactive) | 14 µM (inactive) | 10.6 µM (inactive) | 27.3 µM (inactive) | 136 µM (inactive) | 9.51 µM (inactive)

Reference: ChEMBL document CHEMBL1201862, “PubChem BioAssay data set” (2004)
